From patent US20100144708A1, “HETEROCYCLIC COMPOUNDS CONTAINING NITROGEN ATOMS OR PHARMACEUTICALLY ACCEPTABLE SALTS THEREOF, PROCESS FOR THE PREPARATION THEREOF AND PHARMACEUTICAL COMPOSITION COMPRISING THE SAME FOR TREATMENT OF CANCER” (Korea Research Instititute of Bioscience and Biotechnology, priority 2006, published 2010) come the findings set out here.

Type in all cases: cell-based, Human
Experiment [1] has as its system ACHN (kidney cancer). The experiment is described as follows: Test for inhibition of tumor cell growth (SRB), ACHN. To be noted: 48 hours, SRB staining; for GI50: Homo sapiens, ACHN. On the procedure: (§1) Human tumor cell lines, PC-3 (prostate cancer, ATCC, USA), MBA-MB-231 (breast cancer, ATCC, USA), ACHN (kidney cancer, ATCC, USA), and NUGC-3 (gastric cancer, ATCC, USA) were cultured in RPMI 1640 media containing 10% fetal bovine serum (FBS).
(§2) In order to measure anticancer activity, a suitable concentration of cells in RPMI 1640 media containing 5% fetal bovine serum (about 5×10^4 cells/□) was aliquotted in 96-well plates, and cultured in 5% CO2 at 37° C. On day one after aliquoting the cells, before the cells were treated with the compounds, in order to determine their concentration, 50[…] of 50% trichloroacetic acid was added to each well of time zero (T0) plate, and cells were fixed to determine zero point. The cells treated with the compounds were fixed on each well having 50[…] of 50% trichloroacetic acid after 48 hours. The final concentrations of the test compounds were 0.01, 0.03, 0.1, 0.3, and 1[…]/□. The fixed plate was washed with water and dried, and then 100[…] of 0.4% sulphorhodamine B (SRB) dissolved in 0.1% acetic acid was added to the each well to stain the cells. The plate was allowed to stand for 30 minutes, and then washed with 0.1% acetic acid. Then, the plate was dried at room temperature, and treated with 10 mM tris base (pH 10.5) to dissolve staining reagent. An absorbance measured at 540 nm was calculated as a percentage of the control group, and then the concentration of the compound that inhibited tumor cell growth (GI50(□/□)) by 50% was determined.

Experiment [2] relates to NUGC-3 (gastric cancer). The experiment is described as follows: Test for inhibition of tumor cell growth (SRB), NUGC-3. The settings on record: 48 hours, SRB staining; for GI50: Homo sapiens, NUGC-3. On the procedure:
as §1, §2
Background: Sulforhodamine B stains cellular protein and so reports cell mass.

Experiment [3] relates to PC-3 (prostate cancer). The experiment is described as follows: Test for inhibition of tumor cell growth (SRB), PC-3. To be noted: 48 hours, SRB staining; for GI50: Homo sapiens, read-out: GI50 PC-3 (prostate ancer). The procedure:
as §1, §2

In experiment [4] the test system is MBA-MB-231 (breast cancer). The experiment is described as follows: Test for inhibition of tumor cell growth (SRB), MBA-MB-231. To be noted: 48 hours, SRB staining; for GI50: Homo sapiens. The procedure: as §1, §2

With `CCCCCCCCCCCCCCCCCC(=O)N1CC[N+](CC)(Cc2ccc(Br)cc2)CC1` [Example 50, 1-(4-bromobenzyl)-1-ethyl-4-stearoylpiperazin-1-ium bromide], the GI50 in experiment [1] is 1.94 µg/mL; in experiment [2] it was 2.49 µg/mL; in experiment [3], 0.95 µg/mL; in experiment [4], 2.3 µg/mL.
`C=CC[N+]1(C)CCN(S(=O)(=O)CCCCCCCCCCCCCCCCCC)CC1` [Example 74, 1-allyl-1-methyl-4-(octadecane-1-sulfonyl)piperazin-1-ium bromide]: the GI50 is 1.25 µg/mL in experiment [1], 0.85 µg/mL in experiment [2], 1 µg/mL in experiment [3] and 1.72 µg/mL in experiment [4].
Taken in the same sequence, the figures for `CCCCCCCCCCS(=O)(=O)N1CC[N+](C)(Cc2ccc(F)cc2)CC1` [Example 86, 4-(decane-1-sulfonyl)-1-(4-fluorobenzyl)-1-methyl-piperazin-1-ium bromide] were 3.79 µg/mL, 1.99 µg/mL, 0.88 µg/mL and 4.48 µg/mL.
Taken in the same sequence, the figures for `C=CC[N+]1(C)CCCN(C(=O)CCCCCCCCCCC)CC1` (centres unmarked) [Example 118, 1-allyl-4-dodecanoyl-1-methyl-1,4-diazepan-1-ium bromide] were 2.18 µg/mL, 0.87 µg/mL, 0.78 µg/mL and 3.84 µg/mL.
The like results for `CCCCCCCCCCCCCCCC(=O)N1CCC[N+](C)(Cc2ccccc2)CC1` (centres unmarked) [Example 125, 1-benzyl-1-methyl-4-palmitoyl-1,4-diazepan-1-ium bromide] were, in that order, 0.8 µg/mL, 0.53 µg/mL, 0.35 µg/mL and 0.86 µg/mL.
As to `CCCCCCCCCCCCCCS(=O)(=O)N1CC[N+](C)(CC)CC1` [Example 95, 1-ethyl-1-methyl-4-(tetradecane-1-sulfonyl)piperazin-1-ium iodide], the GI50 in experiment [1] came out at 0.46 µg/mL; in experiment [2], 2.24 µg/mL; in experiment [3] it was 0.35 µg/mL; in experiment [4], 0.64 µg/mL.
Taken in the same sequence, the figures for `CCCCCCCCCCS(=O)(=O)N1CC[N+](C)(Cc2ccc(C)cc2)CC1` [Example 107, 4-(decane-1-sulfonyl)-1-methyl-1-(4-methylbenzyl)piperazin-1-ium bromide] were above 10 µg/mL, 2.72 µg/mL, 1.05 µg/mL and above 10 µg/mL.
Taken in the same sequence, the figures for `CCCCCCCCCCCCCCCCCC(=O)N1CC[N+](CC)(Cc2cccc(C)c2)CC1` [Example 58, 1-ethyl-1-(3-methylbenzyl)-4-stearoylpiperazin-1-ium bromide] were 0.93 µg/mL, 0.46 µg/mL, 0.63 µg/mL and 1.52 µg/mL.
The like results for `CCCCCCCCCCS(=O)(=O)N1CC[N+](C)(Cc2cccc(C)c2)CC1` [Example 106, 4-(decane-1-sulfonyl)-1-methyl-1-(3-methylbenzyl)piperazin-1-ium bromide] were, in that order, 4.13 µg/mL, 1.6 µg/mL, 0.61 µg/mL and 3.56 µg/mL.
Turning to `C=CC[N+]1(CC)CCN(S(=O)(=O)CCCCCCCCCCCC)CC1` [Example 85, 1-allyl-4-(dodecane-1-sulfonyl)-1-ethyl-piperazin-1-ium bromide], the 50% growth inhibitory concentration (GI50) came to 0.53 µg/mL in experiment [1], 0.22 µg/mL in experiment [2], 0.41 µg/mL in experiment [3] and 1.01 µg/mL in experiment [4].
The like results for `C=CC[N+]1(C)CCCN(C(=O)CCCCCCCCCCCCCCC)CC1` (centres unmarked) [Example 120, 1-allyl-1-methyl-4-palmitoyl-1,4-diazepan-1-ium bromide] were, in that order, 0.74 µg/mL, 0.2 µg/mL, 0.75 µg/mL and 1.44 µg/mL.
The like results for `CCCCCCCCCCCS(=O)(=O)N1CC[N+](C)(Cc2ccc(F)cc2)CC1` [Example 66, 1-(4-fluorobenzyl)-1-methyl-4-(undecane-1-sulfonyl)piperazin-1-ium bromide] were, in that order, 1.24 µg/mL, 1.06 µg/mL, 0.56 µg/mL and 1.47 µg/mL.
Taken in the same sequence, the figures for `C=CC[N+]1(C)CCCN(C(=O)CCCCCCCCCCCCC)CC1` (centres unmarked) [Example 127, 1-allyl-1-methyl-4-tetradecanoyl-1,4-diazepan-1-ium bromide] were 0.44 µg/mL, 0.26 µg/mL, 0.18 µg/mL and 0.45 µg/mL.
Turning to `CCCCCCCCCCCCCCCCCC(=O)N1CCC[N+](C)(C)CC1` [Example 129, 1,1-dimethyl-4-stearoyl-1,4-diazepan-1-ium iodide], the GI50 in experiment [1] worked out at 0.57 µg/mL; in experiment [2], 0.26 µg/mL; in experiment [3], 0.24 µg/mL; in experiment [4] it was 0.67 µg/mL.
The like results for `CCCCCCCCCCCCS(=O)(=O)N1CC[N+](CC)(Cc2cccc([N+](=O)[O-])c2)CC1` [Example 98, 4-(dodecane-1-sulfonyl)-1-ethyl-1-(3-nitrobenzyl)piperazin-1-ium bromide] were, in that order, 1.05 µg/mL, 0.28 µg/mL, 0.35 µg/mL and 1.01 µg/mL.
Taken in the same sequence, the figures for `CCCCCCCCCCCCCC(=O)N1CCC[N+](C)(C)CC1` [Example 123, 1,1-dimethyl-4-tetradecanoyl-1,4-diazepan-1-ium iodide] were 0.49 µg/mL, 0.08 µg/mL, 0.36 µg/mL and 0.98 µg/mL.
The like results for `CCCCCCCCCCCC(=O)N1CC[N+](CC)(Cc2cccc([N+](=O)[O-])c2)CC1` [Example 53, 4-dodecanoyl-1-ethyl-1-(3-nitrobenzyl)piperazin-1-ium bromide] were, in that order, 4.84 µg/mL, 3.52 µg/mL, 0.57 µg/mL and 3.95 µg/mL.
“1-ethyl-1-(3-nitrobenzyl)-4-tetradecanoylpiperazin-1-him bromide [Example 56]”: the “GI50 ACHN (kidney cancer)” value in experiment [1] turned out to be 1.93 µg/mL. In addition, the “GI50 NUGC-3 (gastric cancer)” value in experiment [2] stood at 1.22 µg/mL. Also, in experiment [3], the “GI50 PC-3 (prostate ancer)” value amounted to 0.52 µg/mL. The “GI50 MBA-MB-231 (breast cancer)” value in experiment [4] was 1.13 µg/mL.
For `CCCCCCCCCC(=O)N1CC[N+](C)(Cc2ccccc2)CC1` [Example 8, 1-benzyl-4-decanoyl-1-methyl-piperazin-1-ium bromide], the GI50 in experiment [1] is above 10 µg/mL; in experiment [2], above 10 µg/mL; in experiment [3] it was 0.8 µg/mL; in experiment [4], above 10 µg/mL.
As to `CCCCCCCC(=O)N1CC[N+](C)(Cc2ccc(OC)cc2)CC1.[Cl-]` [Example 5, 1-(4-methoxy-benzyl)-1-methyl-4-octanoyl-piperazin-1-ium chloride], the GI50 in experiment [1], in experiment [2], in experiment [3] and in experiment [4] was above 10 µg/mL throughout.
As for `CCCCCCCCCCS(=O)(=O)N1CC[N+](CC)(Cc2ccccc2)CC1` [Example 79, 1-benzyl-4-(decane-1-sulfonyl)-1-ethyl-piperazin-1-ium bromide], the GI50 in experiment [1] was 4.41 µg/mL; in experiment [2] it was 1.24 µg/mL; in experiment [3], 0.85 µg/mL; in experiment [4], above 10 µg/mL.
Taken in the same sequence, the figures for `CCCCCCCCCCCCCC(=O)N1CC[N+](C)(CC)CC1` [Example 14, 1-ethyl-1-methyl-4-tetradecanoyl-piperazin-1-ium iodide] were 2.37 µg/mL, 0.54 µg/mL, 0.57 µg/mL and 2.44 µg/mL.
The like results for `CCCCCCCCCCCCCCCC(=O)N1CCC[N+](C)(C)CC1` [Example 122, 4-hexadecanoyl-1,1-dimethyl-1,4-diazepan-1-ium iodide] were, in that order, 0.4 µg/mL, 0.21 µg/mL, 0.4 µg/mL and 0.94 µg/mL.
Taken in the same sequence, the figures for `CCCCCCCCCCCCCCCCCCCCCC(=O)N1CC[N+](C)(Cc2ccccc2)CC1` [Example 35, 1-benzyl-4-docosanoyl-1-methylpiperazin-1-ium bromide] were 4.74 µg/mL, 1.9 µg/mL, 1.24 µg/mL and 1.98 µg/mL.
Take `C=CC[N+]1(C)CCN(C(=O)CCCCCCCCCCCCCCCCCCCCC)CC1` [Example 36, 1-allyl-4-docosanoyl-1-methylpiperazin-1-ium bromide]: the GI50 came to 2.37 µg/mL in experiment [1], 1.53 µg/mL in experiment [2], 0.96 µg/mL in experiment [3] and 3.16 µg/mL in experiment [4].
For `CCCCCCCCCCCCCCCC(=O)N1CCC[N+](C)(Cc2ccc(F)cc2)CC1.[Br-]` (centres unmarked) [Example 121, 1-(4-fluorobenzyl)-1-methyl-4-palmitoyl-1,4-diazepan-1-him bromide], the “GI50 ACHN (kidney cancer)” value in experiment [1] amounted to 1.09 µg/mL. For the same compound, the “GI50 NUGC-3 (gastric cancer)” value in experiment [2] stood at 0.63 µg/mL. The “GI50 PC-3 (prostate ancer)” value in experiment [3] was 0.46 µg/mL. The “GI50 MBA-MB-231 (breast cancer)” value in experiment [4] is 0.83 µg/mL.

For orientation: GI50 means the concentration that inhibits growth by half.
